The compounds below were run on zebrafish model showing an anesthetic effect by acute alcohol treatment (assay: Movement distance of zebrafish model with acute alcohol treatment (total distance, video tracking 20 minutes)). Conditions: zebrafish larvae 7 dpf, ETOH 2%, omega-3 1.4 mg/L, B2 0.2 mg/L, B3 0.5 mg/L, values converted from FIG. 4.
Type: in vivo
Description: First, each of omega-3 fatty acid (1.4 mg/L), riboflavin (vitamin B2) (0.2 mg/L), and nicotinamide (vitamin B3) (0.5 mg/L) was dissolved in E3 media to prepare a pre-treatment solution. A mixture of omega-3 fatty acid (1.4 mg/L), riboflavin (vitamin B2) (0.2 mg/L), and nicotinamide (vitamin B3) (0.5 mg/L) was dissolved in E3 media to prepare a pre-treatment solution. Each of omega-3 fatty acid (1.4 mg/L), riboflavin (vitamin B2) (0.2 mg/L), and nicotinamide (vitamin B3) (0.5 mg/L) was dissolved in ETOH 2% (in E3 media) to prepare a post-treatment solution. A mixture of omega-3 fatty acid (1.4 mg/L), riboflavin (vitamin B2) (0.2 mg/L), and nicotinamide (vitamin B3) (0.5 mg/L) was dissolved in ETOH 2% (in E3 media) to prepare a post-treatment solution. Zebrafish larvae at 7 days post-fertilization (dpf) were exposed in water to 200 μl/well of the pre-treatment solution for each group (n=20/group) in a 96-well plate for 1 hour. 1 zebrafish larva was in each well. After 1 hour of pre-treatment, the pre-treatment solution was replaced with 200 μl/well of the post-treatment solution for each group, followed by exposure in water. Subsequently, the behaviors of the zebrafish larvae were recorded for 20 minutes. After recording, the cumulative distances for each section (0-5 min, 5-10 min, 10-15 min, and 15-20 min) of the normal control and the experimental groups were analyzed, and the results thereof are shown in FIGS. 1 and 2. […]
Particularly, the behaviors of zebrafish larvae were recorded for 20 minutes, and after recording, the total distance for an experiment time of 20 minutes of each of the normal control and the experimental groups was analyzed, and the results thereof are shown in FIG. 4. […]

Compared with riboflavin [ETOH + B2], “omega-3 fatty acid [ETOH + Omega-3 fatty acid]” is higher in “Average value of total movement distance” value: 223.97 mm for the first, 399.3 mm for the second.

For NC(=O)c1cccnc1 [ETOH + B3, nicotinamide], the “Average value of total movement distance” value was 77.39 mm.
